Test results from patent US4032654A, “Water-soluble, liquid concentrates of S-methyl-[(methyl-carbamoyl)oxy]-thioacetimidate and methyl N', N'-dimethyl-N-[(methyl-carbamoyl)oxy]-1-thiooxamimidate” (priority 1975, dated 1977).
≈ marks a conversion by molar mass, not a printed value.

Experiment: physchem
Details: -6° C.
Description: Solubility of Methomyl and Oxamyl (2:1 wt. ratio) in CH3 OH/H2 O at -6° C.
Methomyl and oxamyl were added to various methanol:water solvent systems ranging from 100 wt. % CH3 OH to 30 wt. % CH3 OH:70 wt. % H2 O. The methomyl and oxamyl were dissolved in a 2:1 weight ratio of 50 wt. % methomyl to 25 wt. % oxamyl in the solvent systems. The samples were equilibrated at -6° C. in a constant temperature freezer after which they were seeded with methomyl and oxamyl crystals to ensure crystallization of both materials. After crystal-liquid equilibrium was assured, liquid was removed at -6° C. and assayed for methomyl and oxamyl. Solids were also removed at -6° C., washed with hexane and dried. The solids were then dissolved in methanol to yield a 10 wt. % solution. This solution was evaluated by thin layer chromatography (TLC) to ensure the solids consisted of both methomyl and oxamyl.

CNC(=O)ON=C(C)SC [Methomyl]
solubility (30/70 ch3oh/h2o, both actives in solvent: Methomyl, with oxamyl, 2:1 wt., 30/70 CH3OH/H2O): 241 mg/mL (≈ 1490 mM)
solubility (40/60 ch3oh/h2o, Methomyl alone in solvent, alone): 62 mg/mL (≈ 382 mM)
solubility (40/60 ch3oh/h2o, both actives in solvent: Methomyl, with oxamyl, 2:1 wt., 40/60 CH3OH/H2O): 422 mg/mL (≈ 2600 mM)
solubility (50/50 ch3oh/h2o, Methomyl alone in solvent, alone): 105 mg/mL (≈ 647 mM)
solubility (50/50 ch3oh/h2o, both actives in solvent: Methomyl, with oxamyl, 2:1 wt., 50/50 CH3OH/H2O): 461 mg/mL (≈ 2840 mM)
solubility (60/40 ch3oh/h2o, Methomyl alone in solvent, alone): 155 mg/mL (≈ 956 mM)
solubility (60/40 ch3oh/h2o, both actives in solvent: Methomyl, with oxamyl, 2:1 wt., 60/40 CH3OH/H2O): 552 mg/mL (≈ 3400 mM)
solubility (70/30 ch3oh/h2o, Methomyl alone in solvent, alone): 208 mg/mL (≈ 1280 mM)
solubility (70/30 ch3oh/h2o, both actives in solvent: Methomyl, with oxamyl, 2:1 wt., 70/30 CH3OH/H2O): 342 mg/mL (≈ 2110 mM)
solubility (80/20 ch3oh/h2o, Methomyl alone in solvent, alone): 263 mg/mL (≈ 1620 mM)
solubility (80/20 ch3oh/h2o, both actives in solvent: Methomyl, with oxamyl, 2:1 wt., 80/20 CH3OH/H2O): 598 mg/mL (≈ 3690 mM)
solubility (90/10 ch3oh/h2o, Methomyl alone in solvent, alone): 299 mg/mL (≈ 1840 mM)
solubility (90/10 ch3oh/h2o, both actives in solvent: Methomyl, with oxamyl, 2:1 wt., 90/10 CH3OH/H2O): 737 mg/mL (≈ 4540 mM)
Solubility, Methomyl alone in solvent (alone, 100/0 CH3OH/H2O): 30.7 gms/100 gms
Solubility change when dissolved in combination (methanol:water solvent systems, 2:1 wt. ratio dissolved initially): increased
Solubility, both actives in solvent: Methomyl (with oxamyl, 2:1 wt., 100/0 CH3OH/H2O): 82.5 gms/100 gms
